Test [1] has as its system AAR of C. albicans WT 9517 cells. As to the kind of experiment: AAR activity of cells grown in different media. The class given is cell-based. Here is the method: Yeast strains were maintained on yeast extract-peptone-dextrose medium (YEPD). Minimal medium (MM) consisted of 1% dextrose and 0.67% yeast nitrogen base without amino acid. Minimal medium was supplemented with L-lysine (50 μg/ml) where appropriate. Escherichia coli strains were maintained on Luria Bertani medium. Plasmid containing strains were maintained in L-agar containing ampicillin at a concentration of 50 μg/ml.
(§1) Cells were grown in appropriate media at 30° C. with constant shaking and harvested during the late logarithmic phase. Crude enzyme preparations were obtained by disruption of the cells in a Braun homogenizer flask in the case of S. cerevisiae (Sinha and Bhattacharjee 1971), and by vortexing with glass beads for 30 s with 30 s intervals at 4° C. for a total of 5 mins in case of C. albicans. The crude extracts were dialyzed and used as the enzyme source for the AAR activity. The amount of protein in the dialyzed extracts was determined according to the procedure of Bradford (1976).
The AAR activity was assayed using previously described procedure (Sagisaka and Shimura 1962). […]
The AAR activity of C. albicans WT 9517 cells was determined for cells grown in minimal medium, minimal medium supplemented with lysine, and YEPD. […]

For test [2], the target named is T1, α-aminoadipate reductase (AAR) (Candida albicans, UniProt Q12572).
T1 construct: The crude extracts were dialyzed and used as the enzyme source for the AAR activity; endogenous in cells; host or cells: C. albicans cells, dialyzed crude extract
T1 sequence (Q12572 1-1391): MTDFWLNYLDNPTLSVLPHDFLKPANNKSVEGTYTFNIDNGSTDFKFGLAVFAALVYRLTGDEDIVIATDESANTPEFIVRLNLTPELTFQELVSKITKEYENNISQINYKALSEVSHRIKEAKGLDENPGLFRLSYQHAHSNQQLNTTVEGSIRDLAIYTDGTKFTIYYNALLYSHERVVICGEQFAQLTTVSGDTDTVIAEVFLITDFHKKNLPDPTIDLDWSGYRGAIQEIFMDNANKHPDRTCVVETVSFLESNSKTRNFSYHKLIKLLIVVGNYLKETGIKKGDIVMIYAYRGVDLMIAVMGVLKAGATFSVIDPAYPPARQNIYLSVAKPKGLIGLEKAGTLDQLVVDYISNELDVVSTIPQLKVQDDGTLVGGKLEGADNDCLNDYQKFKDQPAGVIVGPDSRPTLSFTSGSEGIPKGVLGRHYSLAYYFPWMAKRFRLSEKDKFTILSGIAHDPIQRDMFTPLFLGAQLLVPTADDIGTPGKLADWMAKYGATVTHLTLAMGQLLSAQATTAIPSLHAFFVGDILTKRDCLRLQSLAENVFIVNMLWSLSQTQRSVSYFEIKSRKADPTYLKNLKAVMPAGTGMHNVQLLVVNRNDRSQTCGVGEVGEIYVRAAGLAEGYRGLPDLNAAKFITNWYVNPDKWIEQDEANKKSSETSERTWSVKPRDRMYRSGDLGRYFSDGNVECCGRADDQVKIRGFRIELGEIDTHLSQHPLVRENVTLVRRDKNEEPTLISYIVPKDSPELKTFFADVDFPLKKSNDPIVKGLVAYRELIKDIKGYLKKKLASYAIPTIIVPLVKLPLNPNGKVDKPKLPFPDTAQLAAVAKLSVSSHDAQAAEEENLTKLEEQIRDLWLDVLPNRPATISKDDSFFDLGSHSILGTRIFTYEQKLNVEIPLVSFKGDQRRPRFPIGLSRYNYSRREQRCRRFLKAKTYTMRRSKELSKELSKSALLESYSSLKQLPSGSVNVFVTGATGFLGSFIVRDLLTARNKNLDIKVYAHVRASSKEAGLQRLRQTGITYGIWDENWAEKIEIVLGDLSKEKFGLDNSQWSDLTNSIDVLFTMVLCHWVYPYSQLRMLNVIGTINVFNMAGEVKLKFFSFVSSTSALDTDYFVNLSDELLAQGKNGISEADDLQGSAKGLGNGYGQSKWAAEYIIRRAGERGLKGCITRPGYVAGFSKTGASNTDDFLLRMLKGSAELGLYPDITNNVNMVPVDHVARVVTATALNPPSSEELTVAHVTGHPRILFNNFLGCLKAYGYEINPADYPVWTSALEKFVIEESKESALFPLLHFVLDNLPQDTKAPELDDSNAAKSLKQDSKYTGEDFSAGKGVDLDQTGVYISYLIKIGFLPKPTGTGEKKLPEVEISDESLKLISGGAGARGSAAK
Put plainly: Feedback inhibition of aminoadipate reductase activity in dialyzed cell extract. The conditions noted are these: for AAR activity: cell extract alone 19.76. The class given is biochemical. Here is the method:
as §1
The AAR activity was assayed using previously described procedure (Sagisaka and Shimura 1962). The reaction mixture consisted of DL aminoadipate, 12.5 mM; ATP, 15 mM; MgCl2, 10 mM; reduced glutathione, 1 mM; α-NADPH (tetra sodium salt), 0.625 mM; and Tris HCl, 250 mM (pH8.0). Dialysed cell extract was added to a final concentration of 0.02-1.0 mg of dialyzed protein. Tubes lacking aminoadipate were used as controls. The reaction mixtures were incubated at 30 ° C. for 1 h and terminated by the addition of Iml of 2% p-dimethylaminobenzaldehyde (PDAB) in 2-methoxyethanol. Activity of AAR was reported in units of A460 h-^1 mg protein-^1.
Feedback inhibition by the end product, lysine, was determined by addition of various concentrations of lysine to the reaction mixture. 50 mM lysine inhibited the AAR activity by 70%. However, when a lysine analog, [S-(2-amino ethyl)] L-Cysteine L-thialysine), was used, 1 mM thialysine was sufficient to abolish 92% of the enzyme activity (Table 5).

In test [3] the test system is LYS2 mRNA. As to the kind of experiment: Northern blot analysis of LYS2 mRNA. The class given is cell-based. Particulars: C. albicans WT9517 grown in minimal medium supplemented with lysine. Here is the method: Total RNA was isolated from C. albicans WA95 17 cells grown in different media according to the procedure described by Sherman et al. (1986). Total RNA (20 μg/lane) was fractionated by electrophoresis on a 1% agarose gel, transferred to nylon membranes, and hybridized to LYS2 gene and 18 s rDNA radio-labelled probes. The 2.0 kb EcoRI PstI fragment of the LYS2 gene was labelled with [a^32P]DTP by a random primer kit (Gibco BRL) and used as a probe. A plasmid carrying the 18S rDNA was also labeled similarly and used as ribosomal probe. Hybridization was carried out at 60° C. in 0.5 M Sodium phosphate (pH 7.2), 7% SDS, 1% BSA, 1 mM EDTA (pH 8.0). The membrane was washed in 2×SSC and 0.1% SDS at room temperature for 30 min and followed by a wash in 0.5×SSC and 0.1% SDS at 60° C. for 30 min. The membrane was stripped by boiling in 0.1×SSC and 0.1% SDS for 30 min followed by washing with water at 65° C. for 30 min and then reprobed.
To determine if the LYS2 gene expression is controlled at the transcriptional level by lysine and by other amino acids in rich medium, total RNA was extracted from C. albicans WT9517 grown in minimal medium, minimal medium supplemented with lysine, and in YEPD medium. The blot was quantitated using a beta scanner and the AMBIS Image analysis software. […] The LYS2 mRNA level in YEPD grown cells could not be detected. […]

[4] abbreviates: cell extract + 1 mM inhibitor in reaction mixture.
Setting [5] is: cell extract + 10 mM inhibitor in reaction mixture.

A word on the inhibition: it is how much of the control response was suppressed.

As to `NCCCC[C@H](N)C(=O)O` [lysine, L-lysine], in test [1] (cells grown in minimal medium supplemented with lysine), the “repression of AAR activity compared to cells grown in minimal medium” value is given as 40%. Besides, the AAR activity in test [1] (cells grown in minimal medium supplemented with lysine (L-lysine 50 μg/ml), minimal medium alone 19.79) is on record as 11.87 A460 h^−1 mg protein^−1; in test [2] (setting [4]), 19.34 A460 h^−1 mg protein^−1; in test [2] (setting [5]) it was 9.68 A460 h^−1 mg protein^−1; in test [2] (cell extract + 50 mM inhibitor in reaction mixture), 5.92 A460 h^−1 mg protein^−1. For the same molecule, the inhibition at 50000 µM in test [2] (read-out: inhibition of AAR activity) turned out to be 70%. Besides, in test [3], the “level of LYS2 mRNA compared to cells grown in minimal medium” value is “significantly lower”.

With `NCCSC[C@H](N)C(=O)O` [thialysine, [S-(2-amino ethyl)] L-Cysteine], the inhibition at 1000 µM in test [2] (1 mM in reaction mixture, read-out: inhibition of AAR enzyme activity) amounted to 92%. The AAR activity in test [2] (setting [4]) was found to be 3.58 A460 h^−1 mg protein^−1; in test [2] (setting [5]) it was 1.78 A460 h^−1 mg protein^−1.

Source of the values: US6455248B1, “Reagents and kits for detecting fungal pathogens in a biological sample” (Miami University, priority 1996, dated 2002).
